Measurements from patent US5607967A, “Treatment of alzheimer's disease with 5-(tetradecyloxy)-2-furan carboxylic acid” (Merck & Co., Inc., priority 1994, dated 1997).

Columns and labels:
[1] = tested on: Muscarinic receptor agonist (Pilocarpine) induced catalepsy; assay: Pilocarpine induced catalepsy (Bar method); format: in vivo, rat; settings: TOFA 0.4 mg/kg S.C. pretreatment
Description: (§1) Catalepsy was determined by a modification of the Bar method (Undie and Friedman, 1988). A steel bar, 1.1 cm in diameter and 50 cm long, was suspended at a height of 10 cm above the working surface. Three sides of the bench around the bar were walled off with brown cardboard, and the linings on the bench surface were selected to be of the same color with the cardboard walls. The animal's hind limbs were freely placed on the bench, the fail laid out to the back, and the forelimbs placed over the bar. The length of time a rat stayed up on the bar was noted up to a preset cut-off point of 120 s. The time was counted off upon observing any of the following actions: (1) the animal came off, placing its two forepaws on the bench, (2) the animal climbed onto or over the bar with both hind limbs, (3) the animal initiated locomotion along or around the bar. Subsequently, time readings were translated into scores by awarding a score of 1 for each successfully completed 5 s on the bar. For each observation time, catalepsy scores were averaged for all the animals in a group to give the Mean Score of the group at that observation time. Further, the scores for each animal at all the observation times were added to give the total score for that animal. The mean of this last group of numbers was called the Mean Total Score of the group.
(§2) Catalepsy scores were analyzed by computer in accordance with the statistical procedures outlined by Winer, B. J.: Statistical principles in experimental design. McGraw-Hill, New York, pp. 10-428, 1971. Generally, for a given set of comparisons, observations were subjected to an appropriate analysis of variance followed by two-tailed Dunnett or Student's t-tests to detect differences between treatment groups.
Rats were pretreated with 0.4 mg/kg TOFA or with carrier (S.C.). Twenty-four hours later, the rats were challenged with 16 mg/kg Pilocarpine, an agonist of the muscarinic cholinergic receptor, and the duration of catalepsy was monitored as described in Example 10.

GR/NER chimeric receptor [2] = assay: Ligand dependent transcription assay, GR/NER chimeric receptor with MMTV-luciferase reporter; format: cell-based, human
Description: To search for putative ligands for the NER receptor, the chimeric receptor GR/NER was prepared. […] Chimeric receptors were prepared in which the amino terminal portion of the mouse glucocorticoid receptor (mGR) that includes the DNA binding domain was fused to the putative ligand binding domains of the nuclear receptor NER to form the respective chimeric receptor GR/NER. The cDNA sequences coding for amino acid residues Arg^155 and Glu^156 of the hNER receptor (Shinar et al., NER, a new member of a gene family encoding the steroid hormone nuclear receptor; GENE (in press) were convened to the Xho I restriction site, which site was later used for the ligation to the GR cDNA sequences that coded for the DNA binding domain. Thus, the amino acid residues Arg^155 and Glu^156 of the NER receptor were convened to amino acid residues Ser^155 and His^156.
The chimera was employed in ligand dependent transactivation assays with the reporter gene MMTV-luciferase, in which the luciferase cDNA is transcribed under the control of the MMTV promoter.
Similar hybrid receptors GR/NER, GR/NUC and GR/PPAR, in identical expression plasmid backgrounds were prepared essentially as described for the construction of the GR/mPPAR and GR/NUC chimeric receptors in Schmidt et al., "Identification of a new member of the steroid hormone receptor superfamily that is activated by a peroxisome proliferator and fatty acids," Mol. Endocrinol., 6(10):1634-41, 1992, and in Boie et al., "Enantioselective activation of the peroxisome proliferator-activated receptor", J. Biol. Chem. 268(8):5530-4, 1993.
Briefly, the amino terminal portion of the mouse glucocorticoid receptor (mGR), that includes the DNA binding domain was fused to the putative ligand binding domains of the nuclear receptor NER, hNUC-I (Schmidt et al., 1992), mPPAR (Issenmann and Green, 1990) to form the respective chimeric receptors GR/NER, GR/NUC and GR/PPAR. The GR/NER chimeric receptor was constructed as described for the GR/NUC and GR/PPAR hybrid receptors (Schmidt et al., 1992; Boie et al). The cDNA sequences coding for amino acids Arg^155 and Glu^156 of the NER receptor were converted to the Xho I restriction site, that was later used for the ligation to the GR cDNA sequences that coded for the DNA binding domain. Thus, converting amino acid residues Arg^155 and Glu^156 of NER receptor to amino acid residues Ser^155 and His^156.

[3] = tested on: Dopamine D1 receptor antagonist (SCH 23390) induced catalepsy; assay: SCH 23390 induced catalepsy (Bar method); format: in vivo, rat; settings: for Catalepsy Duration: TOFA 0.4 mg/kg S.C. pretreatment
Description: Rats were pretreated with 0.4 mg/kg TOFA or with carrier (S.C.). Twenty-four hours later, the rats were challenged with 0.5 mg/kg SCH23390, a Dopamine D1 antagonist, and the duration of catalepsy was monitored.
as §1, §2

PC12 cells = assay: Neurite differentiation of PC12 cells; format: cell-based; settings: TOFA alone, without NGF
GR/NER chimeric receptor [4] = assay: Activation of GR/NER in CV1 cells (luciferase)
Description: The ligand dependent transcription assays were performed as described in Example 4, using CV1 cells in place of COS cells. The transfected CV1 cells were treated with dopamine, TOFA, or with a combination of TOFA and dopamine at the indicated concentrations and tested for luciferase activity.
CV1 cells were co-transfected with the MMTV-Luciferase reporter gene (pJA358) and the GR/NER chimeric receptor as described in Example 4. The cells were treated with increasing amount of the dopamine D1 receptor antagonist SCH 23390 with or without 50 μM […] dopamine.

For `CCCCCCCCCCCCCCOc1ccc(C(=O)O)o1` [TOFA, 5-(tetradecyloxy)-2-furan carboxylic acid], the “Catalepsy Duration” value ([1]; 24 h later 16 mg/kg Pilocarpine) was 84.1 ± 9.6 s, the “Catalepsy Duration” value ([1]; no challenge) was 0 s and the “Expression mediated by GR/NER” value (GR/NER chimeric receptor [2]) was “stimulated expression”. For the same compound, the “Fold of stimulation GR/NER” value (GR/NER chimeric receptor [2]; 2 μM) was 2.35 ± 0.09 fold, the “Fold of stimulation GR/NER” value (GR/NER chimeric receptor [2]; 10 μM) was 3.66 ± 0.40 fold and the “Fold of stimulation GR/NER” value (GR/NER chimeric receptor [2]; 20 μM) was 4.82 ± 0.28 fold. For the same compound, the “Catalepsy Duration” value ([3]; 24 h later 0.5 mg/kg SCH23390) was 75 ± 17.8 s, the “Catalepsy Duration” value ([3]; no challenge) was 0 s and the “Increase of duration of SCH 23390-induced catalepsy by TOFA pretreatment” value ([3]; TOFA 0.4 mg/kg S.C., 24 h before 0.5 mg/kg SCH23390) was “at least 25 fold”. For the same compound, the “Neurite outgrowth” value (PC12 cells) was “did not induce neurite outgrowth”, the “Fold of stimulation GR/NER” value (GR/NER chimeric receptor [4]; TOFA 10 μM with dopamine 100 μM) was 1.40 ± 0.05 fold and the “Fold of stimulation GR/NER” value (GR/NER chimeric receptor [4]; TOFA 100 μM with dopamine 100 μM) was 1.60 ± 0.07 fold. For the same compound, the “Fold of stimulation GR/NER” value (GR/NER chimeric receptor [4]; TOFA 100 μM, no dopamine) was 3.70 ± 0.06 fold.
